Experimental findings from PubChem BioAssay AID296 (DTP/NCI, 2004) are described below.

This experiment deals with MX-1 breast xenograft, nude mice, tumor weight T/C. Put plainly: NCI In Vivo Anticancer Drug Screen. Data for tumor model Human Mammary Carcinoma MX-1 Xenograft (intrarenal inoculation) in NU/NU Swiss (nude) mice. The note with it: endpoint: mean tumor weight change, higher = larger tumour. The procedure: The antitumor activity of compounds was measured in mice bearing transplantable tumors. Survival or tumor size were measured and the results are expressed as the measurement made in the treated group (T) divided by the measurement made in the vehicle treated control group (C). The tumor model used in this assay is Human Mammary Carcinoma MX-1 Xenograft (intrarenal inoculation) in NU/NU Swiss (nude) mice
On the technique in general: Xenograft models place foreign cells or tissue in a host animal.

The mark [1] stands for this setting: dose: 100.0 mg/kg/injection, schedule: Q01DX010 (sc), vehicle: saline.
Where [2] appears, read: dose: 200.0 mg/kg/injection, schedule: Q01DX010 (sc), vehicle: saline with Tween-80.
The mark [3] stands for this setting: dose: 400.0 mg/kg/injection, schedule: Q01DX010 (sc), vehicle: saline with Tween-80.
Setting [4] is: dose: 300.0 mg/kg/injection, schedule: Q04DX003 (sc), vehicle: saline.
Where [5] appears, read: dose: 150.0 mg/kg/injection, schedule: Q04DX003 (sc), vehicle: saline with Tween-80.
Setting [6] is: dose: 300.0 mg/kg/injection, schedule: Q04DX003 (sc), vehicle: saline with Tween-80.
Setting [7] is: dose: 75.0 mg/kg/injection, schedule: Q04DX003 (sc), vehicle: saline with Tween-80.
The mark [8] stands for this setting: dose: 150.0 mg/kg/injection, schedule: Q04DX003 (sc), vehicle: Klucel (hydroxypropylcellulose) (HPC).
[9] abbreviates: dose: 300.0 mg/kg/injection, schedule: Q04DX003 (sc), vehicle: Klucel (hydroxypropylcellulose) (HPC).
Setting [10] is: dose: 600.0 mg/kg/injection, schedule: Q04DX003 (sc), vehicle: Klucel (hydroxypropylcellulose) (HPC).
Where [11] appears, read: dose: 600.0 mg/kg/injection, schedule: Q04DX003 (sc), vehicle: saline with Tween-80.
Where [12] appears, read: dose: 1200.0 mg/kg/injection, schedule: Q04DX003 (sc), vehicle: saline with Tween-80.
Setting [13] is: dose: 2400.0 mg/kg/injection, schedule: Q04DX003 (sc), vehicle: saline with Tween-80.
Where [14] appears, read: dose: 300.0 mg/kg/injection, schedule: Q04DX003 (sc), vehicle: suspension in saline.
[15] abbreviates: dose: 12.5 mg/kg/injection, schedule: Q01DX010 (sc), vehicle: dextrose.
[16] abbreviates: dose: 150.0 mg/kg/injection, schedule: Q04DX003 (sc), vehicle: saline.

Each structure is given as a SMILES string. Where “and” joins values, the source holds several entries; their conditions need not be identical. Equal entries are not always repeated. Inconclusive results are not listed.

As for `CCOC(=O)c1c[nH]c2oc(/C=N/N3CC(CN4CCOCC4)OC3=O)cc2c1=O` (stereo unspecified), the T/C by setting is: (dose: 50.0 mg/kg/injection, schedule: Q01DX010 (sc), vehicle: saline) 116 % of control; under setting [1], 77 % of control; (dose: 200.0 mg/kg/injection, schedule: Q01DX010 (sc), vehicle: saline) 98 % of control; (dose: 400.0 mg/kg/injection, schedule: Q01DX010 (sc), vehicle: saline) 72 % of control.

Take `c1ccc2sc(SSN3CC4CCC(CC4)C3)nc2c1`: the T/C reads like this: under setting [2], 156 % of control; under setting [3], 95 % of control.

In the case of `C=CCOCC1CO1` (stereo unspecified), the T/C under setting [4] is 72 % of control.

As for `C1=CCOCOC1`, the T/C under setting [5] is 71 % of control and the T/C under setting [6] is 70 % of control.

Consider `Cc1c(N)nc(C(CC(N)=O)NCC(N)C(N)=O)nc1C(=O)NC(C(=O)NC(C)C(O)CC(=O)NC(C(=O)NC(OC1OC(C)C(N)C(O)C1O)C(O)c1nc(-c2nc(C(=O)NCCCC(N)CC(=O)NCCCNCCCCN)cs2)cs1)C(C)O)C(OC1OC(CO)C(O)C(O)C1OC1OC(CO)C(O)C(OC(N)=O)C1O)c1cnc[nH]1` (stereo unspecified), for which the T/C was 47 % of control (dose: 8.0 mg/kg/injection, schedule: Q04DX003 (sc), vehicle: saline) and 40 % of control (dose: 16.0 mg/kg/injection, schedule: Q04DX003 (sc), vehicle: saline).

Turning to `Nc1nc2c(C(=O)N3CCCC3)nnn2c2ccccc12`, the T/C was 35 % of control (dose: 37.5 mg/kg/injection, schedule: Q04DX003 (sc), vehicle: saline with Tween-80); 74 % of control under setting [7]; 49 % of control under setting [5].

`Cn1c(=O)[nH]c2nncnc2c1=O`: the T/C (dose: 125.0 mg/kg/injection, schedule: Q04DX003 (sc), vehicle: water) was 92 % of control.

On to `CN(C)/N=N/c1nc[nH]c1C(N)=O`, for which the T/C was 93 % of control (dose: 100.0 mg/kg/injection, schedule: Q01DX010 (sc), vehicle: Klucel (hydroxypropylcellulose) (HPC)); 48 % of control (dose: 200.0 mg/kg/injection, schedule: Q01DX010 (sc), vehicle: Klucel (hydroxypropylcellulose) (HPC)); 14 % of control (dose: 400.0 mg/kg/injection, schedule: Q01DX010 (sc), vehicle: Klucel (hydroxypropylcellulose) (HPC)).

`O=NN(CCCl)C(=O)Oc1ccc(OC(=O)N(CCCl)N=O)cc1`: the T/C is, setting by setting: under setting [8], 107 % of control; under setting [9], 95 % of control; under setting [10], 91 % of control; (dose: 1200.0 mg/kg/injection, schedule: Q04DX003 (sc), vehicle: Klucel (hydroxypropylcellulose) (HPC)) 117 % of control.

`O=C(Nc1nncs1)c1cccs1`: the T/C by setting is: under setting [6], 98 % of control; under setting [11], 177 % of control; under setting [12], 115 % of control; under setting [13], 65 % of control.

With `CCCC(=O)O`, the T/C under setting [1] was 104 % of control.

Turning to `C[n+]1ccc(Nc2ccc(NC(=O)c3ccc(Nc4cc[n+](C)c5ccc(N)cc45)cc3)cc2)cc1`, the T/C (dose: 50.0 mg/kg/injection, schedule: Q04DX003 (sc), vehicle: distilled water + Tween-80) is 59 % of control.

As to `C/C=C(\C)C(=O)OC1C(C)=C2C(C1OC(=O)CCCCC)C(C)(OC(C)=O)CC(OC(=O)CCC)C1(O)C2OC(=O)C1(C)O` (stereo unspecified), under “dose: 2.0 mg/kg/injection, schedule: Q04DX003 (ip), vehicle: Klucel (hydroxypropylcellulose) (HPC)”, the T/C was 52 % of control.

As for `N=C(N)SCc1cccc2c(=O)cc(-c3ccccc3)oc12`, the T/C under setting [14] is 110 % of control.

As to `COc1cc(NS(C)(=O)=O)ccc1Nc1c2ccccc2nc2ccccc12`, the T/C (dose: 0.75 mg/kg/injection, schedule: Q01DX010 (sc), vehicle: lactic acid) was 124 % of control and the T/C (dose: 3.75 mg/kg/injection, schedule: Q01DX010 (sc), vehicle: clinical formulation) is 54 % of control.

In the case of `COC1=CC(=O)N(C(=O)C2CSC(C(CO)NC(=O)c3csc(/C=N/O)n3)=N2)C1` (stereo unspecified), the T/C by setting is: under setting [8], 79 % of control; under setting [9], 81 % of control; under setting [10], 95 % of control.

Turning to `O=C(O)CC(=O)O.[NH-]CC[NH-].[Pt+2]`, the T/C by setting is: under setting [15], -100 % of control; (dose: 100.0 mg/kg/injection, schedule: Q01DX010 (sc), vehicle: dextrose) -100 % of control.

`O=C1N(Cl)C(=O)C(c2ccc(Cl)cc2)(c2ccc(Cl)cc2)N1Cl`: the T/C was 68 % of control (dose: 50.0 mg/kg/injection, schedule: Q01DX010 (sc), vehicle: saline with Tween-80); 111 % of control (dose: 100.0 mg/kg/injection, schedule: Q01DX010 (sc), vehicle: saline with Tween-80); 65 % of control under setting [2]; 87 % of control under setting [3].

Consider `ClC1=C(Cl)C(Cl)=C(Cl)C1=Cc1ccccc1`, for which the T/C by setting is: (dose: 100.0 mg/kg/injection, schedule: Q04DX003 (sc), vehicle: saline with Tween-80) 98 % of control; (dose: 200.0 mg/kg/injection, schedule: Q04DX003 (sc), vehicle: saline with Tween-80) 119 % of control; (dose: 400.0 mg/kg/injection, schedule: Q04DX003 (sc), vehicle: saline with Tween-80) 98 % of control; (dose: 800.0 mg/kg/injection, schedule: Q04DX003 (sc), vehicle: saline with Tween-80) 110 % of control.

As to `CCCCCCCCCCCCCCCCCCCCCC(=O)Nc1ccn(C2OC(CO)C(O)C2O)c(=O)n1` (stereo unspecified), the T/C is 123 % of control under setting [6], 87 % of control under setting [11], 68 % of control under setting [12] and 84 % of control under setting [13].

As for `O=c1s[se]c2ccccc12`, the T/C is, setting by setting: under setting [8], 55 % of control; under setting [9], 55 % of control.

Consider `C1CCC(NC2CCCCC2)CC1`, for which the T/C is, setting by setting: (dose: 75.0 mg/kg/injection, schedule: Q04DX003 (ip), vehicle: saline) 119 % of control; (dose: 150.0 mg/kg/injection, schedule: Q04DX003 (ip), vehicle: saline) 174 % of control.

Turning to `O=C(NP(=O)(N1CC1)N1CC1)c1cc(I)ccc1I`, the T/C runs as follows: (dose: 37.5 mg/kg/injection, schedule: Q04DX003 (sc), vehicle: saline) 23 % of control; (dose: 75.0 mg/kg/injection, schedule: Q04DX003 (sc), vehicle: suspension in saline) -60 % of control; under setting [16], -9 % of control; (dose: 150.0 mg/kg/injection, schedule: Q04DX003 (sc), vehicle: suspension in saline) 11 % of control; under setting [4], -100 % of control; under setting [14], -27 % of control. In addition, the T/C (dose: 600.0 mg/kg/injection, schedule: Q04DX003 (sc), vehicle: suspension in saline) was 2 % of control.

Take `C1CNCOC1`: the T/C by setting is: under setting [16], 100 % of control; under setting [4], 84 % of control.

As for `[Cl][Pt+2][Cl].[NH-]C1CCC1.[NH2-]`, the T/C is, setting by setting: (dose: 6.25 mg/kg/injection, schedule: Q04DX003 (sc), vehicle: suspension in saline) -100 % of control; (dose: 25.0 mg/kg/injection, schedule: Q04DX003 (sc), vehicle: suspension in saline) -84 % of control and -100 % of control.

In the case of `O=C(O)C1(C(=O)O)CCC1.[NH2-].[NH2-].[Pt+2]`, the T/C runs as follows: under setting [15], 2 % of control and 11 % of control; (dose: 50.0 mg/kg/injection, schedule: Q01DX010 (sc), vehicle: dextrose) -87 % of control and -75 % of control.

For `CCCCCCCCCCCCCC#CC(=O)O`, the T/C under setting [7] is 87 % of control, the T/C under setting [5] was 94 % of control, the T/C under setting [6] was 92 % of control and the T/C under setting [11] was 77 % of control.

Take `c1ccc([P+](c2ccccc2)(c2ccccc2)c2ccccc2)cc1`: the T/C by setting is: (dose: 5.0 mg/kg/injection, schedule: Q04DX003 (sc), vehicle: saline) 80 % of control; (dose: 10.0 mg/kg/injection, schedule: Q04DX003 (sc), vehicle: saline) 69 % of control; (dose: 20.0 mg/kg/injection, schedule: Q04DX003 (sc), vehicle: saline) 61 % of control.

Consider `CN(C)CCN1C(=O)c2cccc3cc([N+](=O)[O-])cc(c23)C1=O`, for which the T/C reads like this: (dose: 9.0 mg/kg/injection, schedule: Q04DX003 (sc), vehicle: saline with Tween-80) 52 % of control; (dose: 18.0 mg/kg/injection, schedule: Q04DX003 (sc), vehicle: saline with Tween-80) 43 % of control; (dose: 36.0 mg/kg/injection, schedule: Q04DX003 (sc), vehicle: saline with Tween-80) 55 % of control.
